According to article PMC6409614, “BmTudor-sn Is a Binding Protein of Destruxin A in Silkworm Bm12 Cells” (Toxins, 2019):
Non-standard residues stand in square brackets, D forms with d. Residues, ends and D or L forms follow the SMILES beside them. dLac(3-vinyl) = C=CC[C@@H](O)C(=O)O; NMeV = CN[C@H](C(=O)O)C(C)C; NMeA = CN[C@@H](C)C(=O)O; βAla = NCCC(=O)O

Assays:
BmPiwi [1] = test: Bio-Layer Interferometry (BLI), BmPiwi; assay type: binding, Bombyx mori; details: recombinant protein from Sf9 cells, DA 7.813-500 μM
Description: (§1) All proteins were prepared by eukaryotic expression in the Sf9 cell line. These were tagged with His-tag and purified by nickel affinity chromatography. BLI analysis was performed on a ForteBio OctetQK System (K2, Pall Fortebio Corp, Menlo Park, CA, USA). Generally, the protein samples were coupled with a biosensor for immobilization. Serial not gradient dilutions of DA (500, 250, 125, 62.5, 31.25, 15.63, and 7.813 μM) were used for treatment. PBST buffer (0.05% Tween20, 5% DMSO) was used for the reference and dilution buffers. The working procedure was baseline for 60 s, association for 60 s, and dissociation for 60 s. Finally, the raw data were processed with Data Analysis Software (9.0, Pall Fortebio Corp, Menlo Park, CA, USA).

BmAGO2 [2] = test: Bio-Layer Interferometry (BLI), BmAGO2; assay type: binding, Bombyx mori; details: recombinant protein from Sf9 cells, DA 7.813-500 μM
Description: as §1

Bm12 cells = test: RNAi and viability assessment under DA treatment; assay type: cell-based, silkworm (Bombyx mori)
Description: SiRNAs were prepared by synthesis in vitro. The sequence of BmTudor-sn siRNA is 5ʹ-[…]-3ʹ and 5ʹ-[…]-3ʹ. SiRNA and FuGENE transfection reagent were each diluted in serum-free medium and then mixed. The mixture was added to Bm12 cells after the DA treatment. Viability and toxicity assessment were performed following the manufacturer’s instructions.

BmTudor-sn with BmAGO1 = test: Insect two-hybrid (I2H), interaction of BmTudor-sn and mutants with BmAGO1; assay type: cell-based, Bombyx mori; details: Sf9 cells, luciferase; for mutants with signal different from wild type: p < 0.05, DMRT
Description: BmTudor-sn and mutants were cloned into the I2H vector pIE-AD, and BmAGO1 was cloned into the I2H vector pIE-DBD using the Gateway system. These vectors and the luciferase vector were co-transfected into the Sf9 cell line and treated with DA at 0.02 and 0.2 µg/mL. The luciferase activities in the cell extracts were determined using a Luciferase Reporter Assay System (Promega, Beijing, China) and Synergy™ H1 (BioTek, Winooski, VT, USA).

BmPiwi [3] = test: Cellular thermal shift assay (CETSA), BmPiwi; assay type: cell-based, Bombyx mori; details: Bm12 cells, DA 200 µg/mL, 37–58 °C, freeze-thaw lysis, western blot of supernatant
Description: (§2) The Bm12 cell line was used to conduct the CETSA and immunoblot experiments. Cells were treated with DA. For immunoblotting, cell extracts from different DA treatments, collected after incubation with RIPA lysis buffer, were digested with proteinase K and then heated in water at 90 °C for 5 min. Samples were analyzed using SDS-PAGE and transferred to PVDF membranes. The membranes were then incubated in skim milk powder, followed by incubation with primary and HRP antibodies. ECL was added to the chemiluminescence reaction. For CETSA, Bm12 cells, treated with 200 µg/mL DA, were divided into 8 aliquots, heated at 37–58 °C, and lysed by a freeze-thaw cycle. The supernatants of the lysed cells were used for the western blot analysis as described above.

[4] = system: heat shock proteins (HSPs); details: cultured cells (Bm12), DARTS; cited from earlier work
From the text: (§3) Destruxins are cyclodepsipeptidic mycotoxins, and there are 39 analogues. […] Because of the immunosuppression activity of DA in insects, the majority of studies have focused on the mechanism of action of the effect of DA on the immune-related pathway or st ...

insects = details: cited from earlier work
From the text: as §3

HSP = details: in vitro molecular interaction validation; cited from earlier work
From the text: as §3

BmTudor-sn [5] = test: Cellular thermal shift assay (CETSA), BmTudor-sn; assay type: cell-based, Bombyx mori; details: Bm12 cells
Description: as §2

BmTudor-sn [6] = details: Bm12 cells; specific proteinase; earlier DARTS analysis of the authors; reference not given; cited from earlier work
From the text: Molecular docking is a reasonable, efficient, and convenient strategy to narrow down candidates among all proteins compared to other methods such as heterologous expression and kinetic analysis, which require verification one by one. However, it seems paradoxical in this study that proteins with the top docking scores were not the binding protein [24]. Actually, docking is a completely theoretical speculation, and other experiments are required to draw a conclusion. H ...

BmTudor-sn [7] = test: Transcriptional level of BmTudor-sn; assay type: cell-based, Bombyx mori; details: by DA; method not described
BmTudor-sn [8] = test: Immunoblot after proteolysis, BmTudor-sn; assay type: cell-based, Bombyx mori; details: Bm12 cell extracts from different DA treatments, proteinase K, western blot
Description: as §2

BmAGO2 [9] = test: Cellular thermal shift assay (CETSA), BmAGO2; assay type: cell-based, Bombyx mori; details: Bm12 cells, DA 200 µg/mL, 37–58 °C, freeze-thaw lysis, western blot of supernatant
Description: as §2

BmPiwi [10] = test: Transcriptional level of BmPiwi; assay type: cell-based, Bombyx mori; details: by DA; method not described
BmTudor-sn [11] = test: Bio-Layer Interferometry (BLI), BmTudor-sn; assay type: binding, Bombyx mori; details: PBST (0.05% Tween20, 5% DMSO)
Description: as §1

BmAGO2 [12] = test: Transcriptional level of BmAGO2; assay type: cell-based, Bombyx mori; details: by DA; method not described
BmTudor-sn [13] = biological target: T1, BmTudor-sn (Bombyx mori, UniProt D9N4J4); test: bio-layer interferometry (ForteBio OctetQK), protein immobilised on biosensor; assay type: binding
T1 construct: gene Tudor-SN; endogenous protein in Bm12 cells (CETSA); four staphylococcal nuclease domains and a Tudor domain
T1 sequence (D9N4J4 1-888): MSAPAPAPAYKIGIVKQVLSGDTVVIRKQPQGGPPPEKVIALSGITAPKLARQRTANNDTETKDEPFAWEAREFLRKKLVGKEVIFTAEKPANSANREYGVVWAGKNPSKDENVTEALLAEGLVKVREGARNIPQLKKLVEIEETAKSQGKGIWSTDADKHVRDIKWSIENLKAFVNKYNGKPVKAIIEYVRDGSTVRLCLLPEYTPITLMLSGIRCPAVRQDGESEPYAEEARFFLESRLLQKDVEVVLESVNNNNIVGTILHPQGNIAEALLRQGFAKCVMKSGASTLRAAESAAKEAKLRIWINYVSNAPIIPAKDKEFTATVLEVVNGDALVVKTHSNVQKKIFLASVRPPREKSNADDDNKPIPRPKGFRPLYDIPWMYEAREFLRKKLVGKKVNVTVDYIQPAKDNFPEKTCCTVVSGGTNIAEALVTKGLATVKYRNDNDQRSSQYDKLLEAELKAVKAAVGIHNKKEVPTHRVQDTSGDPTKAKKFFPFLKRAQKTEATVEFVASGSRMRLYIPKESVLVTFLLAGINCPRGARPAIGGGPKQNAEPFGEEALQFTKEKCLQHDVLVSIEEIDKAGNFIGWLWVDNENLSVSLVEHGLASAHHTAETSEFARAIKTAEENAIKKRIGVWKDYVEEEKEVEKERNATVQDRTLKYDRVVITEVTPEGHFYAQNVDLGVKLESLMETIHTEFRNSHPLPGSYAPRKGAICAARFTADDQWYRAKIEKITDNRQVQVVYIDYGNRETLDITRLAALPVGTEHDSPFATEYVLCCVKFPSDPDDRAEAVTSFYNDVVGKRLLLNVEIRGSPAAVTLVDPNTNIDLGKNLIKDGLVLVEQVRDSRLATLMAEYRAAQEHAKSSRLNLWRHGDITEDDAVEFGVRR

BmTudor-sn [14] = biological target: T1, BmTudor-sn; test: cellular thermal shift assay (CETSA), western blot, endogenous protein in Bm12 cells; assay type: cell-based; details: 200 µg/mL DA; intact Bm12 cells heated at 37–58 °C
[15] = cited from earlier work
From the text: (§4) DA has been previously reported to play a role in immune related pathways and in inducing the immunosuppression phenotype in insects. The majority of studies have focused on these roles, while few have addressed the mechanism of action in cells. […] Tudor-sn, a multifunctional protein, was reported to regulate do ...

V-ATPase = details: silkworm hemocytes; earlier work of the authors, no reference given; cited from earlier work
From the text: as §4

[16] = DA 0.02 or 0.2 µg/mL, by mutant site

For `C=CC[C@H]1OC(=O)CCNC(=O)[C@H](C)N(C)C(=O)[C@H](C(C)C)N(C)C(=O)[C@H]([C@@H](C)CC)NC(=O)[C@@H]2CCCN2C1=O` [DA, Destruxin A] (cyclo([dLac(3-vinyl)]PI[NMeV][NMeA][βAla])) [listing 1 of 2 here], which “interaction with DA” value (BmPiwi [1]) is on record?
Its value is “not BmPiwi or BmAGO2”.

And the “interaction with DA” value (BmAGO2 [2])?
The value was “not BmPiwi or BmAGO2”.

What about the “viability of BmTudor-sn knock down cells” value (Bm12 cells; Bm12 cells under DA treatment, * p < 0.05, t test) of the same molecule?
The value was “higher viability under DA treatment”.

And the “increase in viability with BmTudor-sn knockdown” value (Bm12 cells; Bm12 cells, BmTudor-sn siRNA, DA treatment)?
The value was “approximately 20%”.

And the “mutants with signal different from wild type” value (BmTudor-sn with BmAGO1; DA 0.02 µg/mL)?
Its value is 2 mutants, Ser707Ala and leu704Ala.

And the “mutants with signal different from wild type” value (BmTudor-sn with BmAGO1; DA 0.2 µg/mL)?
The value was 3 mutants, Ser701Ala, Leu704Ala, and Tyr708Ala.

And the “domain of differing mutants” value (BmTudor-sn with BmAGO1; DA 0.02 and 0.2 µg/mL)?
Its value is “in the Tudor domain (Ser707, Leu704, Ser701, Tyr708) rather than the SN3 (Lys492) and SN4 (Lys582) domains”.

And the “interaction site at both concentrations” value (BmTudor-sn with BmAGO1; DA 0.02 and 0.2 µg/mL)?
Its value is “interacts with BmTudor-sn at both concentrations at Leu704”.

What about the “effect on BmTudor-sn/BmAGO1 pair interaction, impeded” value (BmTudor-sn with BmAGO1; [16]) of the same molecule?
The value was “impeded the protein pair interaction at Ser707 and Tyr708”.

And the “effect on BmTudor-sn/BmAGO1 pair interaction, promoted” value (BmTudor-sn with BmAGO1; [16])?
The value was “promoted it at Leu704 and Ser701”.

And the “thermal stability shift (CETSA)” value (BmPiwi [3])?
Its value is “no thermal stability shift in BmPiwi and BmAGO2”.

And the “induction of heat shock proteins” value [4]?
Its value is “greatly induced heat shock proteins (HSPs) in cultured cells”.

What about the “insecticidal effect and anti-immunity activity” value (insects) of the same molecule?
The value was “strong insecticidal effect and anti-immunity activity”.

And the “binding to an HSP” value (HSP)?
The value was “binds to an HSP in vitro”.

What about the “thermal stability (CETSA), dose dependence” value (BmTudor-sn [5]; 200 µg/mL versus lower dose) of the same molecule?
Its value is “BmTudor-sn showed thermal stability with the 200 µg/mL treatment and not at the lower dose”.

And the “thermal stability (CETSA)” value (BmTudor-sn [5]; DA 200 µg/mL, 37–58 °C, freeze-thaw lysis, western blot of supernatant)?
Its value is “thermal stability of BmTudor-sn increased following DA binding modification”.

What about the “appearance of BmTudor-sn in DARTS” value (BmTudor-sn [6]) of the same molecule?
The value was “only appeared in the 200 µg/mL treatment with a specific proteinase and not at the lower dosage and with other proteinases”.

What about the “upregulation at the transcriptional level” value (from here on “upregulation”) (BmTudor-sn [7]) of the same molecule?
The value was 2-3 fold.

What about the “protein stability under proteolysis (immunoblot)” value (BmTudor-sn [8]) of the same molecule?
The value was “stable with DA treatment in a dosage-dependent manner under proteolysis”.

And the “thermal stability shift (CETSA)” value (BmAGO2 [9])?
The value was “no thermal stability shift in BmPiwi and BmAGO2”.

What about the “upregulation” value (BmPiwi [10]) of the same molecule?
The value was 2-3 fold.

What about the Kd (BmTudor-sn [11]; BLI, ForteBio OctetQK, His-tagged recombinant protein from Sf9 cells immobilized, association 60 s, dissociation 60 s, DA 7.813-500 μM, read-out: affinity constant KD) of the same molecule?
Its Kd is 587 µM.

What about the “interaction with DA” value (BmTudor-sn [11]; BLI, DA 125, 250 and 500 µM) of the same molecule?
Its value is “interacts with BmTudor-sn at concentrations of 125 µm, 250 µm, and 500 µm”.

And the “BLI Response” value (BmTudor-sn [11]; DA 7.81 uM)?
Its value is -0.0024.

What about the “BLI Response” value (BmTudor-sn [11]; DA 15.6 uM) of the same molecule?
Its value is -0.0035.

And the “BLI Response” value (BmTudor-sn [11]; DA 31.3 uM)?
Its value is -0.0012.

What about the “BLI Response” value (BmTudor-sn [11]; DA 62.5 uM) of the same molecule?
Its value is 0.0001.

What about the “BLI Response” value (BmTudor-sn [11]; DA 125 uM) of the same molecule?
The value was 0.0032.

What about the “BLI Response” value (BmTudor-sn [11]; DA 250 uM) of the same molecule?
The value was 0.0086.

And the “BLI Response” value (BmTudor-sn [11]; DA 500 uM)?
Its value is 0.0071.

What about the “upregulation” value (BmAGO2 [12]) of the same molecule?
The value was 2-3 fold.

Which Kd (BmTudor-sn [13]) does the source give for `C=CC[C@H]1OC(=O)CCNC(=O)[C@H](C)N(C)C(=O)[C@H](C(C)C)N(C)C(=O)[C@H]([C@@H](C)CC)NC(=O)[C@@H]2CCCN2C1=O` [DA, Destruxin A] (cyclo([dLac(3-vinyl)]PI[NMeV][NMeA][βAla])) [listing 2 of 2 here] here?
The Kd was 587 µM.

And the thermal stability shift (BmTudor-sn [14])?
Its thermal stability shift is “the thermal stability of BmTudor-sn increased following DA binding modification”.

What does the source list for Destruxin B [DB]?
anti-cancer activity [15]: clear anti-cancer activity; sensitivity to V-ATPase compared with DA (V-ATPase): more sensitive to V-ATPase than DA in silkworm hemocytes
